From PMC7000521, “Hazard Characterization of Synthetic Cathinones Using Viability, Monoamine Reuptake, and Neuronal Activity Assays” (Frontiers in Neuroscience, 2020)
pIC50: −log10 of the molar value. Like-named read-outs stand apart in the source and are kept apart here.

Tests used:
[1] = Estimated human brain concentrations and comparison with IC50 values; details: recreational human blood/serum/plasma concentration multiplied with BPF
Excerpt: (§1) To correlate reported effect concentrations to expected concentrations in the human brain during recreational use a brain partitioning factor (BPF; […]) was applied, as actual human brain concentrations following recreational drug use are unknown. Expected concentrations in the human brain were estimated by multiplying recreational human blood/serum/plasma concentrations with the BPF. Human recreational blood, serum, or plasma levels were obtained from literature (driving under the influence or accidental non-fatal intoxications). The BPF was determined for each drug by dividing the brain concentration by the blood/serum/plasma concentration found in human post mortem reports, or animal studies (rat/mice) when human data were insufficient.
To identify the relevance of effects and potentially harmful drugs, effect concentrations (IC50 values) were related to the estimated human brain concentration during recreational use [(brain), Table 2]. By comparing these concentrations, the most relevant neurotoxic mechanisms of cathinones can be identified. […] Only 4-MEC and MDPV inhibited neuronal activity during acute exposure at concentrations within (MDPV) or close to (4-MEC) the estimated brain concentration.

hDAT = biological target: T1, hDAT (Homo sapiens, UniProt Q01959); assay: Monoamine uptake assay (fluorescent substrate), hDAT; format: cell-based
T1 construct: expressed in transfected cells
T1 sequence (Q01959 whole entry): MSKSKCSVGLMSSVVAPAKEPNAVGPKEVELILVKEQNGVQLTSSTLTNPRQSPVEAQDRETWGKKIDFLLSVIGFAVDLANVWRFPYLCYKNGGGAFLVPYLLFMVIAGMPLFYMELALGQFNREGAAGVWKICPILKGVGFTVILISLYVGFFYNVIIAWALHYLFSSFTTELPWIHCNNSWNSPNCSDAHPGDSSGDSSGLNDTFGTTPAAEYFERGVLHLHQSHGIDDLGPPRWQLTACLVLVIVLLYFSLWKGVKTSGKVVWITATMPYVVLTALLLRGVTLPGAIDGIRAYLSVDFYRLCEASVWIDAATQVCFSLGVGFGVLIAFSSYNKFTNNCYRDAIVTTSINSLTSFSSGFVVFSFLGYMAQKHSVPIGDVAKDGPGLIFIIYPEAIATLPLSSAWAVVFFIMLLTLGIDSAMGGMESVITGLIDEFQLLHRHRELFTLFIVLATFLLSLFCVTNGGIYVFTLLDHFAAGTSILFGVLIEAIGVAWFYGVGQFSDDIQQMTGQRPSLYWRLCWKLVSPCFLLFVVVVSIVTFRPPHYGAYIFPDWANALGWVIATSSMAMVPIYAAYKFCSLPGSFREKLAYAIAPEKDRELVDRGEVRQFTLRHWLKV
Description: (§2) Human embryonic kidney (HEK) 293 cells stably expressing human DAT, NET, or SERT (kindly provided by Dr. Hoener from F. Hoffmann-La Roche Ltd., Basel, Switzerland) were cultured as described in [Zwartsen et al. (2017)].
(§3) Uptake activity of hNET, hDAT, and hSERT was measured using the Neurotransmitter Transporter Uptake Assay Kit from MDS Analytical Technologies (Sunnyvale, CA, United States) as described in detail previously ([Zwartsen et al., 2017]). The kit contained a mixture consisting of a fluorescent substrate, which resembles the biogenic amine neurotransmitters, and a masking dye that extinguishes extracellular fluorescence. Uptake of the fluorescent substrate, a measure of neurotransmitter transporter function, increases intracellular fluorescence, while extracellular fluorescence is blocked by the masking dye ([Jorgensen et al., 2008]). The mixture was dissolved in Hank’s Balanced Salt Solution (1×) (HBSS) with 20 mM HEPES, and kept up to 1 week at −20°C.
On day 0, HEK 293 cells were seeded (60,000 cells/well) in clear-bottom black-walled 96-well plates coated with poly-L-lysine (PLL, 50 mg/L). On day 1, cells were pre-incubated with the fluorescent substrate mixture (95 μL/well, comprising of the fluorescent substrate and the extracellular masking dye, dissolved in HBSS) for 12 min (t = −12 to t = 0). During incubation, intracellular fluorescence was measured every 3 min. […] Stock solutions and dilutions were freshly prepared in HBSS (1×) at the day of usage. Effects of 3-MMC, 4-MMC, 4-MEC, methylone, pentedrone, MDPV, 3-MMCinternet, and 4-MECinternet were measured at final concentrations of 0.03–300/1000 μM. Fluorescence was measured with a microplate reader (Tecan Infinite M200 microplate; Tecan Trading Männedorf, Switzerland) at 37°C at 430/515 nm excitation/emission wavelength. For more experimental detail see [Zwartsen et al. (2017)].
Data from the monoamine uptake assay were analyzed as described by [Zwartsen et al. (2017)], with minor modifications. Data for α-PVP were reanalyzed from [Zwartsen et al. (2017)]. In short, the fluorescence of each well was background corrected and uptake was determined per well by calculating the change in fluorescence (ΔFU) at 12 min after drug exposure (t = 12) compared to the fluorescence at the start of exposure (t = 0), as a percentage of the fluorescence at the start of exposure (%ΔFU = ((FUt = 12−FUt = 0)/FUt = 0)∗100%; see [Zwartsen et al., 2017]). Plate-matched control values for each compound (e.g., methylone) above or below two times the standard deviation of the average normalized control value were considered outliers and were removed from analysis (4.8%). Thereafter, uptake in drug-exposed wells was expressed as a percentage of control wells on the same plate and all uptake values were scaled between 0 and 100%. Outliers (>mean ± 2×SD) in exposed groups were removed (2.7%) and uptake (% compared to control) was expressed as mean ± SEM of nwells from Nplates.
Concentration–response curves were made for transporter, MEA, and cell viability assays. To calculate IC50 values, a four-parameter logistic curve with a variable slope was used (Y = Bottom + (Top−Bottom)/(1 + 10∧((LogIC50 − X) ^∗ HillSlo pe))) (GraphPad Prism, version 7.04). When applicable, significance between concentrations and controls (for MEA) and different IC50 values [between different transporters (DAT/NET/SERT), MEA parameters (MSR/MBR/MNBR), exposure settings (acute/prolonged/recovery), and drug grade (pharmaceutical/internet)] were determined using unpaired t-tests (two values) or one-way ANOVA’s followed by a post hoc Dunnet’s test (>2 values). All statistical tests were performed using GraphPad Prism. For recovery of neuronal activity, IC50 values and 95% confidence intervals could not always be determined and are reported as higher than the highest concentration tested (e.g., >1000 μM). […]

[2] = recreational use (driving under the influence or accidental non-fatal intoxications); ref literature; cited from earlier work
[3] = Brain partitioning factor (BPF); details: brain concentration divided by blood/serum/plasma concentration from human post mortem reports or animal studies (rat/mice)
Excerpt: as §1

[4] = test system: rat primary cortical cultures; design: method as in Zwartsen et al., 2019; details: value [CI], published previously ref Zwartsen et al., 2019, cited from earlier work
hNET = biological target: T2, hNET (Homo sapiens, UniProt P23975); assay: Monoamine uptake assay (fluorescent substrate), hNET; format: cell-based
T2 construct: expressed in transfected cells
T2 sequence (P23975 whole entry): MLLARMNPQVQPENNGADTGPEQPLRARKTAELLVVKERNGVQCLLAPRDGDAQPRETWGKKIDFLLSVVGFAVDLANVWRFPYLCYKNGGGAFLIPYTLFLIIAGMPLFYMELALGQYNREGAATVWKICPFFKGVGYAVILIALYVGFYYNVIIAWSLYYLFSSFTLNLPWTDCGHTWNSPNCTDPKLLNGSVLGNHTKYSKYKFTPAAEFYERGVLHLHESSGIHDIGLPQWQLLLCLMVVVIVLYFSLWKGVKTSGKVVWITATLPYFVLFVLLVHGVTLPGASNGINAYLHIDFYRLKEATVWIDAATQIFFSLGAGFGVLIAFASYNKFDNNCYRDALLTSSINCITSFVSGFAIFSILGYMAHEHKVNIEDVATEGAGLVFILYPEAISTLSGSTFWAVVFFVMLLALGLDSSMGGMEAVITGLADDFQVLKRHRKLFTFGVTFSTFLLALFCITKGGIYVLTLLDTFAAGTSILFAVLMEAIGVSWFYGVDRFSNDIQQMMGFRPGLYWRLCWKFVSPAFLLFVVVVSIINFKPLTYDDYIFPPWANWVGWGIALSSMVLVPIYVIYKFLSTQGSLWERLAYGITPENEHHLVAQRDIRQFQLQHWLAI
Description: as §2
as §3, with “The mixture was dissolved in Hank’s Balanced Salt Solution (1×) (HBSS) with 20 mM HEPES, and kept up to 1 week at −20°C.” left out
(§4) On day 0, HEK 293 cells were seeded (60,000 cells/well) in clear-bottom black-walled 96-well plates coated with poly-L-lysine (PLL, 50 mg/L). […] During incubation, intracellular fluorescence was measured every 3 min. […] Effects of 3-MMC, 4-MMC, 4-MEC, methylone, pentedrone, MDPV, 3-MMCinternet, and 4-MECinternet were measured at final concentrations of 0.03–300/1000 μM. Fluorescence was measured with a microplate reader (Tecan Infinite M200 microplate; Tecan Trading Männedorf, Switzerland) at 37°C at 430/515 nm excitation/emission wavelength. […]

hSERT = biological target: T3, hSERT (Homo sapiens, UniProt P31645); assay: Monoamine uptake assay (fluorescent substrate), hSERT; format: cell-based
T3 construct: expressed in transfected cells
T3 sequence (P31645 whole entry): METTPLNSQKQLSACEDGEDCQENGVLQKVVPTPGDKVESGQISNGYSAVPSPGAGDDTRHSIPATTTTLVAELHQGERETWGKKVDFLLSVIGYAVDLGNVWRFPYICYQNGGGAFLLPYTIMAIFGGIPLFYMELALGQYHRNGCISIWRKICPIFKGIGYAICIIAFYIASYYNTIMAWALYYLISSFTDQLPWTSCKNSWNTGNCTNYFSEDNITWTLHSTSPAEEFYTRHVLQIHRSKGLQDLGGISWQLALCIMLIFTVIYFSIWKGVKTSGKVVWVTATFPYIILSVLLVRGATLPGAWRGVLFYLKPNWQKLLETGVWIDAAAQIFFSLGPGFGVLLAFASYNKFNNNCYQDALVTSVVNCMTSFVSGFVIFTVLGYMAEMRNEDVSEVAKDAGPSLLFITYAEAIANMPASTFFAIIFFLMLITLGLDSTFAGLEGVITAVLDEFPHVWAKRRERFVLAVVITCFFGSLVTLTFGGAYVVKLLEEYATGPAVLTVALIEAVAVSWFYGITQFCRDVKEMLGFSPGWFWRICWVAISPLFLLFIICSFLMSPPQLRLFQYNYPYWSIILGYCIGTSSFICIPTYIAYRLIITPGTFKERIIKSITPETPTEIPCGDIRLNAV
Description: as §2
as §3, with “The mixture was dissolved in Hank’s Balanced Salt Solution (1×) (HBSS) with 20 mM HEPES, and kept up to 1 week at −20°C.” left out
as §4

Compound	Estimated human (brain) concentration [1] [µM]	pIC50 (hDAT)	Human (serum/blood/plasma) concentration [2]	Brain partitioning factor (BPF) [3]	pIC50 ([4]; acute exposure 30 min, read-out: Neuronal activity IC50, mean burst rate (MBR), acute)	pIC50 ([4]; acute exposure 30 min, read-out: Neuronal activity IC50, mean network burst rate (MNBR), acute)	pIC50 ([4]; acute exposure 30 min, read-out: Neuronal activity IC50, mean spike rate (MSR), acute)	pIC50 ([4]; prolonged exposure 4.5 h, read-out: Neuronal activity IC50, mean burst rate (MBR), prolonged)	pIC50 (hNET)	pIC50 (hSERT)
CNC(C)C(=O)c1cccc(C)c1 (centres unmarked) [3-MMC, 2-(methylamino)-1-(3-methylphenyl) propan-1-one]	0.005 to 9.0	5.60	0.005–9.0^A,b,^c μM							
CCNC(C)C(=O)c1ccc(C)cc1 (centres unmarked) [4-MEC, 2-(ethylamino)-1-(4-methylphenyl) propan-1-one]	0.2 to 29	5.80	0.1–4.7^a^,d μM	1.5–6.2^4						
CCCC(C(=O)c1ccc2c(c1)OCO2)N1CCCC1 (centres unmarked) [MDPV, 1-(1,3-benzodioxol-5-yl)-2-pyrro lidin-1-ylpentan-1-one]	0.02 to 30	7.15	0.02–6.9^d,L,M,n μM	0.8–4.4^4,11,12	4.40	4.46	4.52	4.21	7.52	5.35
CNC(C)C(=O)c1ccc(C)cc1 (centres unmarked) [4-MMC, 2-(methylamino)-1-(4-methylphenyl) propan-1-one]	0.04 to 37	5.85	0.05–6.0^a^,d,E,f μM	0.7–6.2^1,^–2,^3						
CCCC(NC)C(=O)c1ccccc1 (centres unmarked) [Pentedrone, 2-(methylamino)-1-phenyl pentan-1-one]	0.06 to 3.0	6.40	0.04–1.9^a^,d,I μM	1.6^8						4.80
